Laboratory results: PubChem BioAssay (NCI)
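Interpolation was linear, between the two tested concentrations surrounding the appropriate level; five concentrations were tested over 48 hours in 96-well plates. The concentration for 50% growth inhibition is given as GI50. At the TGI there is no net growth.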

Legend:
Assay in all cases: DTP human tumour cell line panel, 48 h
[1] = system: COLO 205 colon
[2] = system: HCT-15 colon
[3] = system: HS 578T breast
[4] = system: HT29 colon
[5] = system: NCI-H226 lung
[6] = system: NCI-H460 lung
[7] = system: TK-10 renal
[8] = system: DLD-1 colon
[9] = system: DMS 114 small cell lung
[10] = system: HOP-18 NSCLC

`CC[C@]1(O)C[C@@H]2CN(CCc3c([nH]c4ccccc34)[C@@](C(=O)OC)(c3cc4c(cc3OC)N(C)[C@H]3[C@@](O)(C(N)=O)[C@H](O)[C@]5(CC)[C@@H]6C[C@@H]6CN6CC[C@]43[C@@H]65)C2)C1` was tested, and the GI50 [1] was < 0.00333 µM, the TGI [1] was 0.00878 µM and the GI50 [2] was 0.148 µM. For the same compound, the TGI [2] was > 21.4 µM, the GI50 [3] was < 0.00333 µM and the TGI [3] was > 21.3 µM. The GI50 [4] was < 0.00333 µM, the GI50 [5] was 0.0382 µM and the TGI [5] was > 23.7 µM. For the same compound, the GI50 [6] was 0.00366 µM, the TGI [6] was > 33.3 µM and the GI50 [7] was 13 µM. The TGI [7] was > 33.3 µM.

`COc1ccc2ccccc2c1CN1CCOCCOCCN(Cc2c(OC)ccc3ccccc23)CCOCCOCC1` was tested, and the TGI [1] was > 100 µM, the TGI [8] was > 100 µM and the TGI [9] was > 100 µM. The TGI [2] was > 100 µM, the TGI [4] was > 44 µM and the TGI [5] was > 100 µM. The TGI [6] was > 100 µM and the TGI [7] was > 100 µM.

With `COc1nc(C)cc2c(=O)n(-c3ccccc3)n(CC(O)CN3CCN(c4ccc(Cl)cc4)CC3)c(=O)c12` (stereo not given) the GI50 [1] was > 50 µM, the TGI [1] was > 50 µM and the GI50 [2] was > 50 µM. For the same compound, the TGI [2] was > 50 µM, the GI50 [3] was 18.8 µM and the TGI [3] was > 50 µM. For the same compound, the GI50 [4] was > 50 µM, the TGI [4] was > 50 µM and the GI50 [5] was > 50 µM. For the same compound, the TGI [5] was > 50 µM, the GI50 [6] was > 50 µM and the TGI [6] was > 50 µM. For the same compound, the GI50 [7] was > 50 µM and the TGI [7] was > 50 µM.

`C/C(=C(/c1ccc(O)cc1)c1ccc(Cl)cc1)c1ccccc1` was tested, and the GI50 [1] was 2.44 µM, the TGI [1] was 5.96 µM and the GI50 [2] was 0.639 µM. The TGI [2] was 2.06 µM, the GI50 [3] was 0.6 µM and the TGI [3] was 1.67 µM. The GI50 [4] was 0.852 µM, the TGI [4] was 3.17 µM and the GI50 [5] was 2.75 µM. For the same compound, the TGI [5] was 7.9 µM, the GI50 [6] was 0.471 µM and the TGI [6] was 0.945 µM. The GI50 [7] was 1.72 µM and the TGI [7] was 5 µM.

Compound `CC(/C=C/NNC1=NC(c2ccccc2)C(c2ccccc2)=NN1)Sc1ccccc1N` (stereo not given) has a TGI [1] of 31 µM, a TGI [8] of 21.7 µM and a TGI [2] of 19.8 µM. It also gave a TGI [4] of 23.9 µM, a TGI [5] of 24.3 µM and a TGI [6] of 24.9 µM. The TGI [7] was 27.2 µM.

Compound `Oc1c(CN2CCCC2)cc(CSCc2ccccc2)c2cccnc12` has a GI50 [1] of 4.82 µM, a TGI [1] of 18.7 µM and a GI50 [2] of 0.0612 µM. For the same compound, the TGI [2] was 1.85 µM, the GI50 [3] was 4.7 µM and the TGI [3] was 25 µM. For the same compound, the GI50 [4] was 3.88 µM, the TGI [4] was 14 µM and the GI50 [5] was 1.11 µM. It also gave a TGI [5] of 4.8 µM, a GI50 [6] of 0.498 µM and a TGI [6] of 2.83 µM. It also gave a GI50 [7] of 0.775 µM and a TGI [7] of 13.1 µM.

`CN1c2ccccc2S(=O)(=O)n2c(CCc3ccccc3)nnc21` was tested, and the TGI [1] was > 100 µM, the TGI [2] was > 100 µM and the TGI [3] was > 100 µM. The TGI [4] was > 100 µM, the TGI [5] was > 100 µM and the TGI [6] was > 100 µM. For the same compound, the TGI [7] was > 100 µM.

For `Cc1cccc(N=C2NC(=O)C(CC(=O)Nc3ccc(C)cc3C)S2)c1` (stereo not given), the TGI [8] was > 100 µM, the TGI [9] was > 100 µM and the TGI [2] was > 100 µM. The TGI [4] was > 100 µM, the TGI [5] was > 100 µM and the TGI [6] was > 100 µM. The TGI [7] was > 100 µM.

With `CCOC(=O)C1=C(Nc2ccc(Cl)c(Cl)c2)OC/C1=N\NC(=O)Cc1ccccc1` the TGI [1] was > 100 µM, the TGI [8] was > 100 µM and the TGI [9] was > 100 µM. For the same compound, the TGI [10] was > 100 µM, the TGI [5] was > 100 µM and the TGI [6] was > 100 µM. For the same compound, the TGI [7] was > 100 µM.

`CC(C(=O)O)c1ccc(-c2ccccc2)c(F)c1` (stereo not given) was tested, and the TGI [1] was > 100 µM, the TGI [2] was > 100 µM and the TGI [3] was > 100 µM. For the same compound, the TGI [4] was > 100 µM, the TGI [5] was > 100 µM and the TGI [6] was > 100 µM. For the same compound, the TGI [7] was > 100 µM.

In the case of `N#Cc1c(C[n+]2ccccc2)c2ccccc2oc1=O`, the TGI [1] is reported as > 100 µM, the TGI [8] is reported as > 100 µM and the TGI [9] is reported as > 100 µM. For the same compound, the TGI [2] was > 100 µM, the TGI [4] was > 100 µM and the TGI [5] was > 100 µM. The TGI [6] was > 100 µM.
